IC50 data for 44 compounds are collected here from ChEMBL document CHEMBL3886972, “Chemical entities” (2016).

Assay [1] deals with DNA-dependent protein kinase catalytic subunit (Homo sapiens, UniProt P78527). Description: ADP Hunter Plus Assay: The kinase activity was measured by using the commercial ADP Hunter Plus assay available from DiscoveRx (#90-0083), which is a homogeneous assay to measure the accumulation of ADP, a universal product of kinase activity. The enzyme, DNA-PK was purchased from Promega (#V5811). The assay was done following the manufacturer recommendations with slight modifications: Mainly the kinase buffer was replace by 15 mM HEPES, pH 7.5, 10 mM MgCl2, 20 mM NaCl, 1 mM EGTA, 0.1 mg/mL BGG, 0.02% Tween 20. The DNA-PK was assayed in a titration experiment to determine the optimal protein concentration for the inhibition assay. To calculate the […] of the Compounds, serial 1:3 dilutions of the compounds were added to the enzyme at a fixed concentration (2 U/uL). The enzyme was preincubated with the inhibitor and 200 uM DNA substrate and then ATP was added to a final 75 uM concentration. Reaction was carried out for 1 hour at 37° C. Reagent A and B were sequentially added to the wells and plates were incubated for 30 min at RT. Fluorescence counts were read in a EnVision instrument (Perkin Elmer) with the recommended settings (550 and 590 nm as excitation and emission wavelengths, respectively).

The target of assay [2] is PI3-kinase p110-alpha/p85-alpha (Homo sapiens, UniProt P42336). Description: null: The kinase activity was measured by using the commercial ADP Hunter Plus assay available from DiscoveRx (#33-016), which is a homogeneous assay to measure the accumulation of ADP, a universal product of kinase activity. […] The reaction was carried out for 1 hour at 25° C. Reagent A and B were sequentially added to the wells and plates were incubated for 30 min at 37° C. Fluorescence counts were read in a Victor instrument (Perkin Elmer) with the recommended settings (544 and 580 nm as excitation and emission wavelengths, respectively). It is filed as protein-complex assay.
Chain of PI3-kinase p110-alpha/p85-alpha (P27986 whole entry): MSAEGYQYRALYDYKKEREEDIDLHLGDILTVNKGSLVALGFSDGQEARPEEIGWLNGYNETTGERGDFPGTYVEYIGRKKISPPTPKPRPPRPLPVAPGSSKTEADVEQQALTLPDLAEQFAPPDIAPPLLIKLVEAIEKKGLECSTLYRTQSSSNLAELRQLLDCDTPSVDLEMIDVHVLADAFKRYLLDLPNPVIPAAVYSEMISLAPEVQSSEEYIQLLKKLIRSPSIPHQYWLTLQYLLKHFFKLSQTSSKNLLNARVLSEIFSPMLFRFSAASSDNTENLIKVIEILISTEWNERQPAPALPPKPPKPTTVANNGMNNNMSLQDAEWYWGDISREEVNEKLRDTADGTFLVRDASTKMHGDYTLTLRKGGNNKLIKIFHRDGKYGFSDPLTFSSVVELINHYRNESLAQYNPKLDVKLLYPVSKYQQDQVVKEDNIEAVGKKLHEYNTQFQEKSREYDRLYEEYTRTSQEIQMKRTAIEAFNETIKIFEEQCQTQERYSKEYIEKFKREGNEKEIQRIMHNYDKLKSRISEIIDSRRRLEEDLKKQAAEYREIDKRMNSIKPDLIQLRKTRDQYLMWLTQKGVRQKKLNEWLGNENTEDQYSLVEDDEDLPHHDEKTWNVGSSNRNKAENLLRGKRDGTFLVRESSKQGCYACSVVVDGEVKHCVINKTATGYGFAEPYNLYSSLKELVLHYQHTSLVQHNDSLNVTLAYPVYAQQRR
Chain of PI3-kinase p110-alpha/p85-alpha (P42336 whole entry): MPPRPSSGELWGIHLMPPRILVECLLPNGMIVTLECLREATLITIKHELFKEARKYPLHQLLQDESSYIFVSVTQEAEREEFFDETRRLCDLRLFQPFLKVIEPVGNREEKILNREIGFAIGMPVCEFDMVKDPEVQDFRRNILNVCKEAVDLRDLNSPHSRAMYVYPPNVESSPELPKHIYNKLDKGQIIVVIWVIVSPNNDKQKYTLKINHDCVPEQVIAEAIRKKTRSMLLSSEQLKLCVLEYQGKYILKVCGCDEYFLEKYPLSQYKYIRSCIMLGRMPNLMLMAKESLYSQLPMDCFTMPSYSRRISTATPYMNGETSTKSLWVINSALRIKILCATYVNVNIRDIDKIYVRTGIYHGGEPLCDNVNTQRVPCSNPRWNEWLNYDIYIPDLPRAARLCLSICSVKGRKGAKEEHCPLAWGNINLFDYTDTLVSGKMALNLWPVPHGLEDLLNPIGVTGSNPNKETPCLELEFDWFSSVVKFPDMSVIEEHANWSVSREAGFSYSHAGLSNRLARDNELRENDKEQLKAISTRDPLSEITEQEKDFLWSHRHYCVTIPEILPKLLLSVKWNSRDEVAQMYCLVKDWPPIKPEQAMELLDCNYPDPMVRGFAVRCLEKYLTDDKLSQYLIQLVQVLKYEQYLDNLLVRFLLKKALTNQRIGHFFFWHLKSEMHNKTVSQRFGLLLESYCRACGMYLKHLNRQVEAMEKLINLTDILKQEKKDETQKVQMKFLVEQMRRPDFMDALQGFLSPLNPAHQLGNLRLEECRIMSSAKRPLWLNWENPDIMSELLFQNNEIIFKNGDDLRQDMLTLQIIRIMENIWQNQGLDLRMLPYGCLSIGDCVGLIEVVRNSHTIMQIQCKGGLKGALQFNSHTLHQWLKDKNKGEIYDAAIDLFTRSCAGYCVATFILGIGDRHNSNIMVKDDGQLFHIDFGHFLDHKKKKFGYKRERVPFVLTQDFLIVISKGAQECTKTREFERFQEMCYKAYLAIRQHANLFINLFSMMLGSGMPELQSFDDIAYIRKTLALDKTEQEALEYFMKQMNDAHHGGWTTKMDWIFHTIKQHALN

In general, IC50 refers to the concentration needed to halve the response being measured. `CNc1nc2cc(Cl)ccc2n1-c1nc2c(c(C3(S(C)(=O)=O)CCC3)n1)OC[C@@H]1COCCN21`: the IC50 in assay [1] is 10 µM; in assay [2] it was at least 50 µM.
For `CS(=O)(=O)C1(c2nc(-c3cncc4[nH]ccc34)nc3c2OCC2COCCN32)CCOCC1` (stereo not given), in that order: at least 25 µM and 2 µM.
In the same order, the values of `CCOC(=O)N1CCC(c2nc(-c3cccc4[nH]ccc34)nc3c2OC[C@@H]2COCCN32)(S(C)(=O)=O)CC1` are 10 µM and 7.38 µM.
Turning to `CS(=O)(=O)Cc1nc(-c2cccc3[nH]ccc23)nc2c1OCC1COCCN21` (stereo not given), the IC50 in assay [1] is 10 µM; in assay [2], 6.6 µM.
In the same order, the values of `CS(=O)(=O)C1(c2nc(-c3ccnc4[nH]ccc34)nc3c2OCC2COCCN32)CCOCC1` (stereo not given) are 10 µM and 8.5 µM.
In the same order, the values of `Cc1cc2c(-c3nc4c(c(C5(S(C)(=O)=O)CCOCC5)n3)OCC3COCCN43)cccc2[nH]1` (stereo not given) are at least 25 µM and 10.3 µM.
For `CC1(c2nc(-c3cccc4[nH]ccc34)nc3c2OCC2COCCN32)CCCS1(=O)=O` (stereo not given), in that order: 10 µM and 6.9 µM.
As to `CNc1nc2ccccc2n1-c1nc2c(c(C(C)(C)[S@TB1](C)(=O)=O)n1)OCCC1COCCN21` (stereo not given), the IC50 in assay [1] is 1.88 µM.
Consider `O=S(=O)(Cc1nc(-c2cccc3[nH]ccc23)nc2c1OCC1COCCN21)C(F)(F)F` (stereo not given), for which the values for the IC50 in assay [1] and in assay [2] were at least 25 µM and 14.9 µM, respectively.
For `CNc1nc2ccccc2n1-c1nc2c(c(C3(S(C)(=O)=O)CCOCC3)n1)OCC1COCCN21` (stereo not given), in that order: 10 µM and at least 50 µM.
For the compound `CS(=O)(=O)C1(c2nc(-c3cccc4[nH]ccc34)nc3c2OCC2COCCN32)CCOCC1` (stereo not given), the IC50 in assay [2] is 13.3 µM.
Consider `CC(C)(c1nc(-c2cccc3[nH]ccc23)nc2c1OCC[C@H]1COCCN21)S(C)(=O)=O`, for which the IC50 in assay [2] is 19.3 µM.
With `CNc1nc2ccccc2n1-c1nc2c(c(C(C)(C)O)n1)OCC1COCCN21` (stereo not given), the figures for the IC50 in assay [1] and in assay [2] were 3.18 µM and 2.17 µM, respectively.
Turning to `CC(C)(c1nc(-c2c(F)ccc3[nH]ccc23)nc2c1OCC1COCCN21)S(C)(=O)=O` (stereo not given), the IC50 in assay [2] is 7.9 µM.
With `COc1ccc(-c2nc3c(c(C4(S(C)(=O)=O)CCOCC4)n2)OCC2COCCN32)c2cc[nH]c12` (stereo not given), the IC50 is at least 25 µM in assay [1] and 16.9 µM in assay [2].
Take `CS(=O)(=O)C1(c2nc(-c3cccc4[nH]ccc34)nc3c2OC[C@@H]2COCCN32)CCOCC1`: the IC50 in assay [2] turned out to be 4.9 µM.
`CC(C)(O)c1nc(-c2cc(F)cc3[nH]ccc23)nc2c1OC[C@@H]1COCCN21`: the IC50 was 0.886 µM in assay [1] and 2.27 µM in assay [2].
For `CS(=O)(=O)C1(c2nc(-c3cccc4[nH]ccc34)nc3c2OCC2COCCN32)CC1` (stereo not given), the 50% inhibitory concentration (IC50) is at least 25 µM in assay [1] and 2.5 µM in assay [2].
For `C[S@TB17](=O)(=O)Nc1nc(-c2cccc3[nH]ccc23)nc2c1OCC1COCCN21` (stereo not given), in that order: 10 µM and 6.95 µM.
Take `CC(C)(c1nc(-c2ccnc3[nH]ccc23)nc2c1OCC1COCCN21)S(C)(=O)=O` (stereo not given): the IC50 in assay [1] is 2.82 µM; in assay [2], 0.67 µM.
For `CS(=O)(=O)C1(c2nc(-c3cc(F)cc4[nH]ccc34)nc3c2OCC2COCCN32)CCOCC1` (stereo not given), in that order: 10 µM and 6 µM.
Take `CNc1nc2ccccc2n1-c1nc2c(c(C(C)(C)S(C)(=O)=O)n1)OCC1COCCN21` (stereo not given): in assay [2], the half-inhibitory concentration (IC50) stood at 2.8 µM.
As to `c1cc(-c2nc(-c3cccc4[nH]ccc34)c3c(n2)N2CCOCC2CO3)c2cc[nH]c2c1` (stereo not given), the figures for the IC50 in assay [1] and in assay [2] were 10 µM and 6.55 µM, respectively.
In the same order, the values of `CS(=O)(=O)c1cccc(-c2nc(-c3cccc4[nH]ccc34)nc3c2OCC2COCCN32)c1` (stereo not given) are 5.04 µM and 10.6 µM.
Take `COc1cc(-c2nc3c(c(C4([S@TB1](C)(=O)=O)CCOCC4)n2)OCCC2COCCN32)c2cc[nH]c2c1` (stereo not given): the IC50 is at least 25 µM in assay [1] and 23.3 µM in assay [2].
Turning to `COc1cc(-c2nc3c(c(C4(S(C)(=O)=O)CCOCC4)n2)OCC2COCCN32)c2cc[nH]c2c1` (stereo not given), the half-inhibitory concentration (IC50) in assay [1] was 10 µM; in assay [2] it was 5 µM.
Take `C[S@TB17](=O)(=O)C1(c2nc(-c3cc(F)cc4[nH]ccc34)nc3c2OCCC2COCCN32)CCOCC1` (stereo not given): the IC50 in assay [1] was at least 25 µM; in assay [2], above 10 µM.
For `CC(C)(C#N)c1nc(-c2cccc3[nH]ccc23)nc2c1OCC1COCCN21` (stereo not given), in that order: 10 µM and 1.67 µM.
Take `CS(=O)(=O)C1(c2nc(-c3c(F)ccc4[nH]ccc34)nc3c2OCC2COCCN32)CCOCC1` (stereo not given): the values for the IC50 in assay [1] and in assay [2] were 10 µM and 21 µM, respectively.
For `CC(C)Nc1nc2ccccc2n1-c1nc2c(c(C(C)(C)S(C)(=O)=O)n1)OC[C@@H]1COCCN21`, the values for the IC50 in assay [1] and in assay [2] were 4.3 µM and 6.61 µM, respectively.
Turning to `CC(C)(c1nc(-c2cccc3[nH]ccc23)nc2c1OCC1COCCN21)S(C)(=O)=O` (stereo not given), the IC50 was 17.3 µM in assay [1] and 1.7 µM in assay [2].
Regarding `CNc1nc2ccc(Cl)cc2n1-c1nc2c(c(C3(S(C)(=O)=O)CCC3)n1)OC[C@@H]1COCCN21`, the IC50 in assay [1] was 10 µM; in assay [2], at least 50 µM.
With `CC(C)(c1nc(-c2cccc3[nH]ccc23)nc2c1OCC1COCCN21)S(=O)(=O)C1CC1` (stereo not given), the IC50 in assay [2] was determined as 2.4 µM.
On to `CC(C)(O)c1nc(-c2cccc3[nH]ccc23)nc2c1OCC1COCCN21` (stereo not given), for which the IC50 is 7.21 µM in assay [1] and 2.39 µM in assay [2].
In the same order, the values of `CCNc1nc2ccccc2n1-c1nc2c(c(C(C)(C)S(C)(=O)=O)n1)OC[C@@H]1COCCN21` are 0.196 µM and 2.65 µM.
For `CN1CCC(c2nc(-c3cccc4[nH]ccc34)nc3c2OCC2COCCN32)(S(C)(=O)=O)CC1` (stereo not given), in that order: at least 25 µM and 12.5 µM.
Consider `CS(=O)(=O)C1(c2nc(-c3cccc4[nH]ccc34)nc3c2OC[C@@H]2COCCN32)CCC1`, for which the IC50 in assay [1] was 10 µM; in assay [2], 3.16 µM.
As to `CCCNc1nc2ccccc2n1-c1nc2c(c(C(C)(C)S(C)(=O)=O)n1)OC[C@@H]1COCCN21`, the IC50 in assay [1] is 6.65 µM; in assay [2] it was 6.25 µM.
In the same order, the values of `CS(=O)(=O)C1(c2nc(-c3cccc4[nH]ccc34)nc3c2OC[C@@H]2COCCN32)CCNCC1` are 4.93 µM and 1.98 µM.
For `CNc1nc2ccccc2n1-c1nc2c(c(C3(S(C)(=O)=O)CCOCC3)n1)OCCC1COCCN21` (stereo not given), in that order: 10 µM and at least 50 µM.
On to `CNc1nc2ccccc2n1-c1nc2c(c(C(C)(C)S(C)(=O)=O)n1)OC[C@@H]1COCCN21`, for which the IC50 is 1.51 µM in assay [1] and 1.9 µM in assay [2].
In the same order, the values of `CC(C)(c1nc(-c2cccc3[nH]ncc23)nc2c1OC[C@H]1COCCN21)S(C)(=O)=O` are 4.15 µM and 0.4 µM.
For `CS(=O)(=O)C1(c2nc(-c3cccc4[nH]ccc34)nc3c2OCC[C@@H]2COCCN32)CCOCC1`, in that order: at least 25 µM and at least 50 µM.
Regarding `CS(=O)(=O)C1(c2nc(-c3cccc4[nH]ccc34)nc3c2OC[C@H]2COCCN32)CCOCC1`, the IC50 in assay [2] is 11.5 µM.
